# Data as given in PubChem BioAssay (NCI).
#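 Here, GI50 denotes the concentration required for 50% inhibition of growth. TGI denotes the concentration required for complete inhibition of growth.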
# Columns and labels:
# Assay in all cases: NCI tumour cell line growth inhibition, 384-well format
# [1] = test system: 786-0 renal
# [2] = test system: A498 renal
# [3] = test system: A549 NSCLC
# [4] = test system: ACHN renal
# [5] = test system: BT-549 breast
# [6] = test system: CAKI-1 renal
# [7] = test system: COLO 205 colon
# [8] = test system: DU-145 prostate
# [9] = test system: EKVX NSCLC
# [10] = test system: HCC-2998 colon
# [11] = test system: HCT-116 colon
# [12] = test system: HCT-15 colon
# [13] = test system: HL-60(TB) leukemia
# [14] = test system: HOP-62 NSCLC
# [15] = test system: HOP-92 NSCLC
# [16] = test system: HS 578T breast
# [17] = test system: HT29 colon
# [18] = test system: IGROV1 ovarian
# [19] = test system: KM12 colon
# [20] = test system: LOX IMVI melanoma
# [21] = test system: M14 melanoma
# [22] = test system: MALME-3M melanoma
# [23] = test system: MCF7 breast
# [24] = test system: MDA-MB-231 breast
# [25] = test system: MDA-MB-435 melanoma
# [26] = test system: MDA-MB-468 breast
# [27] = test system: MOLT-4 leukemia
# [28] = test system: NCI-H226 lung
# [29] = test system: NCI-H23 lung
# [30] = test system: NCI-H322M lung
# [31] = test system: NCI-H460 NSCLC
# [32] = test system: NCI-H522 lung
# [33] = test system: NCI/ADR-RES ovarian
# [34] = test system: OVCAR-3 ovarian
# [35] = test system: OVCAR-4 ovarian
# [36] = test system: OVCAR-5 ovarian
# [37] = test system: OVCAR-8 ovarian
# [38] = test system: PC-3 prostate
# [39] = test system: RPMI-8226 leukemia
# [40] = test system: RXF 393 renal
# [41] = test system: SF-268 CNS
# [42] = test system: SF-295 CNS
# [43] = test system: SF-539 CNS
# [44] = test system: SK-MEL-28 melanoma
# [45] = test system: SK-MEL-5 melanoma
# [46] = test system: SK-OV-3 ovarian
# [47] = test system: SN12C renal
# [48] = test system: SNB-19 CNS
# [49] = test system: SNB-75 CNS
# [50] = test system: SR leukemia
# [51] = test system: SW-620 colon
# [52] = test system: T-47D breast
# [53] = test system: TK-10 renal
# [54] = test system: U251 glioblastoma
# [55] = test system: UACC-257 melanoma
# [56] = test system: UACC-62 melanoma
# [57] = test system: UO-31 renal
smiles,measurement,setting,value
COC(=O)C[C@](O)(CCCC(C)(C)O)C(=O)O[C@@H]1C(OC)=C[C@]23CCCN2CCc2cc4c(cc2[C@H]13)OCO4,GI50,[1],26 nM
same,TGI,[1],147 nM
same,GI50,[2],19 nM
same,TGI,[2],44.9 nM
same,GI50,[3],18 nM
same,TGI,[3],115 nM
same,GI50,[4],43.2 nM
same,TGI,[4],304 nM
same,GI50,[5],17.1 nM
same,TGI,[5],34.8 nM
same,GI50,[6],42.4 nM
same,TGI,[6],266 nM
same,GI50,[7],25.9 nM
same,TGI,[7],120 nM
same,GI50,[8],29.9 nM
same,TGI,[8],85 nM
same,GI50,[9],36.5 nM
same,TGI,[9],201 nM
same,GI50,[10],< 10 nM
same,TGI,[10],25.3 nM
same,GI50,[11],< 10 nM
same,TGI,[11],88.7 nM
same,GI50,[12],47.7 nM
same,TGI,[12],233 nM
same,GI50,[13],< 10 nM
same,TGI,[13],< 10 nM
same,GI50,[14],26.3 nM
same,TGI,[14],134 nM
same,GI50,[15],37.9 nM
same,TGI,[15],102 nM
same,GI50,[16],18 nM
same,TGI,[16],34.6 nM
same,GI50,[17],21.4 nM
same,TGI,[17],66.3 nM
same,GI50,[18],24 nM
same,TGI,[18],115 nM
same,GI50,[19],27.5 nM
same,TGI,[19],183 nM
same,GI50,[20],< 10 nM
same,TGI,[20],21.9 nM
same,GI50,[21],20.3 nM
same,TGI,[21],41.6 nM
same,GI50,[22],15 nM
same,TGI,[22],33.2 nM
same,GI50,[23],< 10 nM
same,TGI,[23],1450 nM
same,GI50,[24],31.6 nM
same,TGI,[24],105 nM
same,GI50,[25],43.4 nM
same,TGI,[25],130 nM
same,GI50,[26],< 10 nM
same,TGI,[26],19.9 nM
same,GI50,[27],< 10 nM
same,TGI,[27],< 10 nM
same,GI50,[28],11.9 nM
same,TGI,[28],38 nM
same,GI50,[29],17.6 nM
same,TGI,[29],36.9 nM
same,GI50,[30],84.4 nM
same,TGI,[30],287 nM
same,GI50,[31],< 10 nM
same,TGI,[31],17 nM
same,GI50,[32],< 10 nM
same,TGI,[32],17.3 nM
same,GI50,[33],1780 nM
same,TGI,[33],7.74 µM
same,GI50,[34],13.8 nM
same,TGI,[34],41.1 nM
same,GI50,[35],26.5 nM
same,TGI,[35],72.1 nM
same,GI50,[36],48.9 nM
same,TGI,[36],806 nM
same,GI50,[37],25.9 nM
same,TGI,[37],66.8 nM
same,GI50,[38],26 nM
same,TGI,[38],139 nM
same,GI50,[39],< 10 nM
same,TGI,[39],15.5 nM
same,GI50,[40],17.4 nM
same,TGI,[40],47.9 nM
same,GI50,[41],31.1 nM
same,TGI,[41],85.2 nM
same,GI50,[42],26 nM
same,TGI,[42],55.9 nM
same,GI50,[43],17.2 nM
same,TGI,[43],33.3 nM
same,GI50,[44],25.7 nM
same,TGI,[44],62.5 nM
same,GI50,[45],13 nM
same,TGI,[45],36.6 nM
same,GI50,[46],26 nM
same,TGI,[46],172 nM
same,GI50,[47],40.4 nM
same,TGI,[47],267 nM
same,GI50,[48],29.8 nM
same,TGI,[48],> 100 µM
same,GI50,[49],32.1 nM
same,TGI,[49],78.9 nM
same,GI50,[50],< 10 nM
same,TGI,[50],< 10 nM
same,GI50,[51],30.4 nM
same,TGI,[51],183 nM
same,GI50,[52],27.5 nM
same,TGI,[52],187 nM
same,GI50,[53],48.7 nM
same,TGI,[53],894 nM
same,GI50,[54],21.4 nM
same,TGI,[54],66.9 nM
same,GI50,[55],26.5 nM
same,TGI,[55],65.6 nM
same,GI50,[56],31.8 nM
same,TGI,[56],107 nM
same,GI50,[57],295 nM
same,TGI,[57],1090 nM
